Assay results published in US11053204B2, “Pyrimidinyloxy benzene derivatives as herbicides” (FMC Corporation, priority 2015, dated 2021).

Legend:
Assay type in all cases: in vivo
[1] = test system: Italian ryegrass (Lolium multiflorum); assay: Test A preemergence, visual injury rating; conditions: 0 to 100 scale (0 no effect, 100 complete control)
Summary of the method: (§1)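 Pre- and postemergence greenhouse screen. Soil: loam + sand. Spray carrier: solvent mixture, non-phytotoxic, with surfactant. Post timing at 1–2 leaves, height 2–10 cm. Readout: visual injury on a 0–100 scale roughly 10 days after application, untreated plants as reference.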

[2] = test system: giant foxtail (Setaria faberii); assay: Test A preemergence, visual injury rating; conditions: 0 to 100 scale (0 no effect, 100 complete control)
Summary of the method: as §1

[3] = test system: pigweed (Amaranthus retroflexus); assay: Test A preemergence, visual injury rating; conditions: 0 to 100 scale (0 no effect, 100 complete control)
Summary of the method: as §1

[4] = test system: ragweed (common ragweed, Ambrosia elatior); assay: Test A preemergence, visual injury rating; conditions: 0 to 100 scale (0 no effect, 100 complete control)
Summary of the method: as §1

[5] = test system: crabgrass, large (large crabgrass, Digitaria sanguinalis); assay: Test C preemergence, plant response rating; conditions: Preemergence
Summary of the method: (§2)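 Preemergence: seeds sown in loam–sand blend or silt loam and sprayed with test chemicals in a non-phytotoxic surfactant-containing solvent. Postemergence: potted plants at 2–18 cm (1–4-leaf stage) sprayed with the same formulation. After 13–15 d in greenhouse, visual rating versus controls on 0 (no effect) to 100 (complete control) scale.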

[6] = test system: lambsquarters (Chenopodium album); assay: Test C preemergence, plant response rating; conditions: Preemergence
Summary of the method: as §2

[7] = test system: velvetleaf (Abutilon theophrasti); assay: Test C preemergence, plant response rating; conditions: Preemergence
Summary of the method: as §2

[8] = test system: oilseed rape (Brassica napus); assay: Test C preemergence, plant response rating; conditions: Preemergence
Summary of the method: as §2

[9] = test system: morningglory (Ipomoea coccinea); assay: Test C preemergence, plant response rating; conditions: Preemergence
Summary of the method: as §2

[10] = test system: foxtail, giant (giant foxtail, Setaria faberii); assay: Test C preemergence, plant response rating; conditions: Preemergence
Summary of the method: as §2

[11] = test system: waterhemp (common waterhemp, Amaranthus rudis); assay: Test C preemergence, plant response rating; conditions: Preemergence
Summary of the method: as §2

[12] = test system: blackgrass (Alopecurus myosuroides); assay: Test C preemergence, plant response rating; conditions: Preemergence
Summary of the method: as §2

soybean (Glycine max) = assay: Test C preemergence, plant response rating; conditions: Preemergence
Summary of the method: as §2

corn (Zea mays) = assay: Test C preemergence, plant response rating; conditions: Preemergence
Summary of the method: as §2

[13] = test system: ragweed (common ragweed, Ambrosia elatior); assay: Test C preemergence, plant response rating; conditions: Preemergence
Summary of the method: as §2

[14] = test system: ryegrass, Italian (Italian ryegrass, Lolium multiflorum); assay: Test C preemergence, plant response rating; conditions: Preemergence
Summary of the method: as §2

[15] = test system: wheat (winter wheat, Triticum aestivum); assay: Test C preemergence, plant response rating; conditions: Preemergence
Summary of the method: as §2

[16] = test system: nutsedge, yellow (yellow nutsedge, Cyperus esculentus); assay: Test C preemergence, plant response rating; conditions: Preemergence
Summary of the method: as §2

O=C(OCCC(F)(F)F)c1c(Br)cccc1Oc1ncc(Br)cn1 [Compound 33]
Ryegrass, Italian plant response rating ([1]; 125 g ai/ha): 40 | Ryegrass, Italian plant response rating ([1]; 500 g ai/ha): 100 | Foxtail, Giant plant response rating ([2]; 125 g ai/ha): 100 | Foxtail, Giant plant response rating ([2]; 500 g ai/ha): 100 | Pigweed plant response rating ([3]; 125 g ai/ha): 100 | Pigweed plant response rating ([3]; 500 g ai/ha): 100 | Ragweed plant response rating ([4]; 125 g ai/ha): 0 | Ragweed plant response rating ([4]; 500 g ai/ha): 20 | Plant response rating, Crabgrass, Large ([5]; 62 g ai/ha, scale of 0 to 100): 100 | Plant response rating, Crabgrass, Large ([5]; 125 g ai/ha, scale of 0 to 100): 100 | Plant response rating, Crabgrass, Large ([5]; 16 g ai/ha, scale 0 to 100): 75 | Plant response rating, Crabgrass, Large ([5]; 31 g ai/ha, scale 0 to 100): 98 | Plant response rating, Lambsquarters ([6]; 125 g ai/ha, scale of 0 to 100): 85 | Plant response rating, Lambsquarters ([6]; 16 g ai/ha, scale 0 to 100): 25 | Plant response rating, Lambsquarters ([6]; 31 g ai/ha, scale 0 to 100): 60 | Plant response rating, Lambsquarters ([6]; 62 g ai/ha, scale 0 to 100): 80 | Plant response rating, Velvetleaf ([7]; 125 g ai/ha, scale of 0 to 100): 100 | Plant response rating, Velvetleaf ([7]; 16 g ai/ha, scale 0 to 100): 5 | Plant response rating, Velvetleaf ([7]; 31 g ai/ha, scale 0 to 100): 30 | Plant response rating, Velvetleaf ([7]; 62 g ai/ha, scale 0 to 100): 55 | Plant response rating, Oilseed Rape ([8]; 125 g ai/ha, scale of 0 to 100): 100 | Plant response rating, Oilseed Rape ([8]; 16 g ai/ha, scale 0 to 100): 50 | Plant response rating, Oilseed Rape ([8]; 31 g ai/ha, scale 0 to 100): 80 | Plant response rating, Oilseed Rape ([8]; 62 g ai/ha, scale 0 to 100): 85 | Plant response rating, Morningglory ([9]; 125 g ai/ha, scale of 0 to 100): 40 | Plant response rating, Morningglory ([9]; 16 g ai/ha, scale 0 to 100): 0 | Plant response rating, Morningglory ([9]; 31 g ai/ha, scale 0 to 100): 0 | Plant response rating, Morningglory ([9]; 62 g ai/ha, scale 0 to 100): 25 | Plant response rating, Foxtail, Giant ([10]; 62 g ai/ha, scale of 0 to 100): 98 | Plant response rating, Foxtail, Giant ([10]; 125 g ai/ha, scale of 0 to 100): 100 | Plant response rating, Foxtail, Giant ([10]; 16 g ai/ha, scale 0 to 100): 60 | Plant response rating, Foxtail, Giant ([10]; 31 g ai/ha, scale 0 to 100): 95 | Plant response rating, Waterhemp ([11]; 125 g ai/ha, scale of 0 to 100): 100 | Plant response rating, Waterhemp ([11]; 16 g ai/ha, scale 0 to 100): 100 | Plant response rating, Waterhemp ([11]; 31 g ai/ha, scale 0 to 100): 100 | Plant response rating, Waterhemp ([11]; 62 g ai/ha, scale 0 to 100): 100 | Plant response rating, Blackgrass ([12]; 62 g ai/ha, scale of 0 to 100): 70 | Plant response rating, Blackgrass ([12]; 125 g ai/ha, scale of 0 to 100): 90 | Plant response rating, Blackgrass ([12]; 16 g ai/ha, scale 0 to 100): 0 | Plant response rating, Blackgrass ([12]; 31 g ai/ha, scale 0 to 100): 10 | Plant response rating, Soybean (soybean (Glycine max); 125 g ai/ha, scale of 0 to 100): 30 | Plant response rating, Soybean (soybean (Glycine max); 16 g ai/ha, scale 0 to 100): 15 | Plant response rating, Corn (corn (Zea mays); 62 g ai/ha, scale of 0 to 100): 10 | Plant response rating, Corn (corn (Zea mays); 125 g ai/ha, scale of 0 to 100): 10 | Plant response rating, Corn (corn (Zea mays); 16 g ai/ha, scale 0 to 100): 0 | Plant response rating, Corn (corn (Zea mays); 31 g ai/ha, scale 0 to 100): 0 | Plant response rating, Ragweed ([13]; 125 g ai/ha, scale of 0 to 100): 50 | Plant response rating, Ragweed ([13]; 16 g ai/ha, scale 0 to 100): 55 | Plant response rating, Ragweed ([13]; 31 g ai/ha, scale 0 to 100): 35 | Plant response rating, Ragweed ([13]; 62 g ai/ha, scale 0 to 100): 40 | Plant response rating, Ryegrass, Italian ([14]; 125 g ai/ha, scale of 0 to 100): 85 | Plant response rating, Ryegrass, Italian ([14]; 16 g ai/ha, scale 0 to 100): 0 | Plant response rating, Ryegrass, Italian ([14]; 31 g ai/ha, scale 0 to 100): 30 | Plant response rating, Ryegrass, Italian ([14]; 62 g ai/ha, scale 0 to 100): 30 | Plant response rating, Wheat ([15]; 125 g ai/ha, scale of 0 to 100): 5 | Plant response rating, Wheat ([15]; 16 g ai/ha, scale 0 to 100): 0 | Plant response rating, Wheat ([15]; 31 g ai/ha, scale 0 to 100): 0 | Plant response rating, Wheat ([15]; 62 g ai/ha, scale 0 to 100): 0 | Plant response rating, Nutsedge, Yellow ([16]; 125 g ai/ha, scale of 0 to 100): 5 | Plant response rating, Nutsedge, Yellow ([16]; 16 g ai/ha, scale 0 to 100): 0 | Plant response rating, Nutsedge, Yellow ([16]; 31 g ai/ha, scale 0 to 100): 0 | Plant response rating, Nutsedge, Yellow ([16]; 62 g ai/ha, scale 0 to 100): 5
